“And” between values parts separate entries of the source, which are not always exact repeats. Identical values can stand only once. Like-named read-outs stand apart in the source and are kept apart here.
Legend:
brain levels of GABA = conditions: known compounds, literature; cited from earlier work
GABA-T [1] = conditions: known compounds, literature; cited from earlier work
GABA-T [2] = test: Biochemical tests for irreversible inhibition of GABA-T; conditions: biochemical / biological tests
[3] = Toxicity (lethality) after i.p. or oral administration to mice
Method: A. The toxicity of (S)-allenyl GABA and (R,S)-allenyl GABA was determined after i.p. administration to male mice. The mice were observed up to eight days after injection.
B. The toxicity of (S)-allenyl GABA ("S") and (R,S)-allenyl GABA ("R,S") was determined as in Part A after both oral and i.p. administration.

GABA levels in the brain [4] = test: GABA level in mouse brain after a single i.p. or oral dose; type: in vivo, mice; conditions: for elevation of GABA levels in the CNS: administered orally or parenterally; for effectiveness by oral versus i.p. route: oral vs i.p.; for GABA Level (calculated as percent of control): 6 h
Method: […] […] The other half of the animals are observed for up to 12 days for toxicity (as indicated by weight loss and deaths). Control animals receive an injecion of the vehicle only.
The brains are removed from the dead mice and are divided into two portions by sagittal section. One half is used for the measurement of GABA-T activity while the other is used for measuring GABA content. […] GABA content is measured by perchloric acid or trichloroacetic acid extracts using an amino acid analyzer equiped with a fluorescence detector.
(§1) B. The procedure of Part A is repeated using both oral and i.p. doses of (R,S)-allenyl GABA.

GABA-T [5] = test: GABA-T activity in mouse brain after a single i.p. or oral dose; type: in vivo, mice; conditions: for GABA-T Activity (calculated as percent inhibition): 6 h
Method: (§2) Male albino CD1 mice each weighing approximately 34 g at commencement of the test are given an i.p. injection of the test compound in aqueous solution daily for seven consecutive days. Half of the animals are killed by decapitation 24 hours after the last dose fo the test compound. The other half of the animals are observed for up to 12 days for toxicity (as indicated by weight loss and deaths). Control animals receive an injecion of the vehicle only.
(§3) The brains are removed from the dead mice and are divided into two portions by sagittal section. One half is used for the measurement of GABA-T activity while the other is used for measuring GABA content. The GABA-T activity is measured using known methods as described by M. Jung et al., J.Neurochem., 28, 717 (1977) and 29, 797 (1977). GABA content is measured by perchloric acid or trichloroacetic acid extracts using an amino acid analyzer equiped with a fluorescence detector.
A. The procedure of Example 3 is repeated using a single i.p. dose of the test compound and killing the mice 6 hours after the i.p. injection.
as §1

GABA-T [6] = test: GABA-T activity in mouse brain after seven daily i.p. doses; type: in vivo, mice (male albino CD1); conditions: 24 h after last dose
Method: as §2, §3

GABA levels in the brain [7] = test: GABA content of mouse brain after seven daily i.p. doses; type: in vivo, mice (male albino CD1); conditions: 24 h after last dose
Method: as §2, §3

[8] = system: seizures and death induced by mercaptopropionic acid; test: Protection of mice against seizures and death induced by mercaptopropionic acid; type: in vivo; conditions: for Number of Animals having seizures / Number of Dead animals: 6 h before mercaptopropionic acid 53 mg/kg i.p.
Description: Mice (3.5) were given a single i.p. injection of the test compound. […] The results of the testing are set forth below

[9] = single i.p. dose 0.77 mM/kg (135.9 mg/kg), Table 2
[10] = single i.p. dose 1.55 mM/kg (273.5 mg/kg), Table 2
[11] = single i.p. dose 3.10 mM/kg (547.2 mg/kg), Table 2
[12] = 100 mg/kg i.p. daily for 7 days
[13] = i.p., 0.77 mM/kg (135.9 mg/kg), single dose, Table 3
[14] = i.p., 1.94 mM/kg (342.4 mg/kg), single dose, Table 3
[15] = i.p., 3.87 mM/kg (683.1 mg/kg), single dose, Table 3
[16] = oral, 0.77 mM/kg (135.9 mg/kg), single dose, Table 3
[17] = oral, 1.94 mM/kg (342.4 mg/kg), single dose, Table 3
[18] = oral, 3.87 mM/kg (683.1 mg/kg), single dose, Table 3
[19] = single i.p. dose 6.2 mM/kg (1094.3 mg/kg), Table 2
[20] = mercaptopropionic acid model, mice

C#CC(N)CCC(=O)O (centres unmarked) [4-aminohex-5-ynoic acid]
elevation of brain levels of GABA (brain levels of GABA): elevate brain levels of GABA | irreversible inhibition of GABA-T (GABA-T [1]): irreversible inhibitors of GABA-T

C=C=C[C@H](N)CCC(=O)O [(R)-allenyl GABA]
irreversible inhibition of GABA-T (GABA-T [2]): not an irreversible inhibitor of GABA-T | irreversible inhibition of GABA-T (GABA-T [2]; listed as (R)(-)-isomer): not active

C=C=C[C@@H](N)CCC(=O)O [(S)-allenyl GABA, (S)-4-amino-hepta-5,6-dienoic acid]
No. of dead animals ([3]; i.p., 250 mg/kg, Day 1): 0/5 | No. of dead animals ([3]; i.p., 250 mg/kg, Day 2): 0/5 | No. of dead animals ([3]; i.p., 250 mg/kg, Day 3): 0/5 | No. of dead animals ([3]; i.p., 250 mg/kg, Day 4): 0/5 | No. of dead animals ([3]; i.p., 250 mg/kg, Day 8): 0/5 | No. of dead animals ([3]; i.p., 375 mg/kg, Day 1): 0/5 | No. of dead animals ([3]; i.p., 375 mg/kg, Day 2): 0/5 | No. of dead animals ([3]; i.p., 375 mg/kg, Day 3): 0/5 | No. of dead animals ([3]; i.p., 375 mg/kg, Day 4): 0/5 | No. of dead animals ([3]; i.p., 375 mg/kg, Day 8): 0/5 | No. of dead animals ([3]; i.p., 500 mg/kg, Day 1): 0/5 | No. of dead animals ([3]; i.p., 500 mg/kg, Day 2): 0/5 | No. of dead animals ([3]; i.p., 500 mg/kg, Day 3): 0/5 | No. of dead animals ([3]; i.p., 500 mg/kg, Day 4): 0/5 | No. of dead animals ([3]; i.p., 500 mg/kg, Day 8): 0/5 | No. of dead animals ([3]; i.p., 750 mg/kg, Day 1): 0/5 | No. of dead animals ([3]; i.p., 750 mg/kg, Day 2): 0/5 | No. of dead animals ([3]; i.p., 750 mg/kg, Day 3): 0/5 | No. of dead animals ([3]; i.p., 750 mg/kg, Day 4): 0/5 | No. of dead animals ([3]; i.p., 750 mg/kg, Day 8): 0/5 | toxicity after i.p. administration ([3]; i.p., very large doses corresponding to maximal biological effects): non-toxic after i.p. administration of very large doses | toxicity by oral administration ([3]; oral): non-toxic by oral administration | No. of dead animals Day 4 ([3]; oral, 500 mg/kg, Day 4, Example 5 Part B): 0/5 | No. of dead animals Day 4 ([3]; oral, 750 mg/kg, Day 4, Example 5 Part B): 1/5 | irreversible inhibition of GABA-T (GABA-T [2]): irreversible inhibitor of GABA-T | relative potency for the elevation of GABA levels (GABA levels in the brain [4]; (S) versus (R,S), single i.p. dose, Table 2): twice the potency of (R,S)-allenyl GABA | elevation of GABA levels in the CNS (GABA levels in the brain [4]): can elevate GABA levels significantly in the CNS | effectiveness by oral versus i.p. route (GABA levels in the brain [4]; Table 3): equally effective when given by the oral and i.p. routes of administration | GABA Level (calculated as percent of control) (GABA levels in the brain [4]; [9]): 540% of control | GABA Level (calculated as percent of control) (GABA levels in the brain [4]; [10]): 670% of control | GABA Level (calculated as percent of control) (GABA levels in the brain [4]; [11]): 730% of control | irreversible inhibition of GABA-T in vivo (GABA-T [5]): produce irreversible inhibition of GABA-T | GABA-T Activity (calculated as percent inhibition) (GABA-T [5]; [9]): 79 percent inhibition | GABA-T Activity (calculated as percent inhibition) (GABA-T [5]; [10]): 92 percent inhibition | GABA-T Activity (calculated as percent inhibition) (GABA-T [5]; [11]): 96 percent inhibition

C=CC(N)CCC(=O)O (centres unmarked) [4-aminohex-5-enoic acid ("vinyl GABA"), 4-aminohex-5-enoic acid]
elevation of brain levels of GABA (brain levels of GABA): elevate brain levels of GABA | irreversible inhibition of GABA-T (GABA-T [1]): irreversible inhibitors of GABA-T

C=C=CC(N)CCC(=O)O (racemic) [(R,S)-allenyl GABA, (R,S)-4-amino-hepta-5,6-dienoic acid]
selectivity ratio ([3]; mouse, in vivo, ip): 4 to 5 | No. of dead animals ([3]; mouse, in vivo, ip, 500 mg/kg): 0/5 | No. of dead animals Day 4 ([3]; mouse, in vivo, ip, 500 mg/kg): 0/5 | No. of dead animals ([3]; mouse, in vivo, ip, 750 mg/kg): 3/5 | No. of dead animals Day 4 ([3]; mouse, in vivo, ip, 750 mg/kg): 3/5 | No. of dead animals ([3]; mouse, in vivo, ip, 1000 mg/kg): 2/5 and 4/5 and 5/5 | No. of dead animals Day 4 ([3]; mouse, in vivo, ip, 1000 mg/kg): 5/5 | No. of dead animals ([3]; mouse, in vivo, ip, 1500 mg/kg): 5/5 | No. of dead animals Day 4 ([3]; mouse, in vivo, ip, 1500 mg/kg): 5/5 | No. of dead animals Day 4 ([3]; mouse, in vivo, po, 500 mg/kg): 0/5 | No. of dead animals Day 4 ([3]; mouse, in vivo, po, 750 mg/kg): 0/5 | No. of dead animals Day 4 ([3]; mouse, in vivo, po, 1000 mg/kg): 0/5 | No. of dead animals Day 4 ([3]; mouse, in vivo, po, 1500 mg/kg): 0/5 | toxicity by oral administration ([3]; oral): did not show toxicity by the oral route up to a dose of 1500 mg/kg | GABA-T Activity (calculated as percent inhibition) (GABA-T [6]; 50 mg/kg i.p. daily for 7 days): 55 percent inhibition | GABA-T Activity (calculated as percent inhibition) (GABA-T [6]; [12]): 74 percent inhibition | GABA Level (calculated as percent of control) (GABA levels in the brain [7]; 50 mg/kg i.p. daily for 7 days): 130% of control | GABA Level (calculated as percent of control) (GABA levels in the brain [7]; [12]): 180% of control | elevation of GABA levels in the CNS (GABA levels in the brain [4]): can elevate GABA levels significantly in the CNS | GABA Level (calculated as percent of control) (GABA levels in the brain [4]; [13]): 310% of control | GABA Level (calculated as percent of control) (GABA levels in the brain [4]; [14]): 490% of control | GABA Level (calculated as percent of control) (GABA levels in the brain [4]; [15]): 600% of control | effectiveness by oral versus i.p. route (GABA levels in the brain [4]; Table 3): equally effective when given by the oral and i.p. routes of administration | GABA Level (calculated as percent of control) (GABA levels in the brain [4]; [16]): 330% of control | GABA Level (calculated as percent of control) (GABA levels in the brain [4]; [17]): 434% of control | GABA Level (calculated as percent of control) (GABA levels in the brain [4]; [18]): 530% of control | GABA Level (calculated as percent of control) (GABA levels in the brain [4]; [10]): 470% of control | GABA Level (calculated as percent of control) (GABA levels in the brain [4]; [11]): 530% of control | GABA Level (calculated as percent of control) (GABA levels in the brain [4]; [19]): 770% of control | Number of Animals having seizures ([8]; 0.39 mMole/kg i.p.): 5/5 | Number of Dead animals ([8]; 0.39 mMole/kg i.p.): 3/5 | Number of Animals having seizures ([8]; 0.77 mMole/kg i.p.): 5/5 | Number of Dead animals ([8]; 0.77 mMole/kg i.p.): 2/5 | Number of Animals having seizures ([8]; 1.9 mMole/kg i.p.): 3/5 | Number of Dead animals ([8]; 1.9 mMole/kg i.p.): 0/5 | Number of Animals having seizures ([8]; 3.9 mMole/kg i.p.): 3/5 | Number of Dead animals ([8]; 3.9 mMole/kg i.p.): 0/5 | effect on number of dead animals [8, 20]: significantly reduces the number of dead animals | protection against seizures [8, 20]: does not protect totally against seizures | GABA-T Activity (calculated as percent inhibition) (GABA-T [5]; [13]): 64 percent inhibition | GABA-T Activity (calculated as percent inhibition) (GABA-T [5]; [14]): 84 percent inhibition | GABA-T Activity (calculated as percent inhibition) (GABA-T [5]; [15]): 88 percent inhibition | irreversible inhibition of GABA-T in vivo (GABA-T [5]): produce irreversible inhibition of GABA-T | GABA-T Activity (calculated as percent inhibition) (GABA-T [5]; [16]): 69 percent inhibition | GABA-T Activity (calculated as percent inhibition) (GABA-T [5]; [17]): 81 percent inhibition | GABA-T Activity (calculated as percent inhibition) (GABA-T [5]; [18]): 86 percent inhibition | GABA-T Activity (calculated as percent inhibition) (GABA-T [5]; [10]): 76 percent inhibition | GABA-T Activity (calculated as percent inhibition) (GABA-T [5]; [11]): 89 percent inhibition | GABA-T Activity (calculated as percent inhibition) (GABA-T [5]; [19]): 96 percent inhibition

C#CC(N)CCCN (centres unmarked) [1-acetylene-1,4-butanediamine]
elevation of brain levels of GABA (brain levels of GABA): elevate brain levels of GABA | irreversible inhibition of GABA-T (GABA-T [1]): irreversible inhibitors of GABA-T

— patent US4454156A, “4-Amino-hepta-5,6-dienoic acid” (Merrell-Toraude et Compagnie, priority 1982, dated 1984)
